In paper PMC3350394, “Kinetic analysis and test-retest variability of the radioligand [^11C](R)-PK11195 binding to TSPO in the human brain - a PET study in control subjects” (EJNMMI Research, 2012):
“And” between values parts separate entries of the source, which are not always exact repeats. Equal entries are not always repeated.

Target: TSPO (Homo sapiens, UniProt P30536)
Assay: PET, kinetic compartment analysis (1TCM, 2TCM) with metabolite-corrected arterial input function
Conditions: for BPND (k3/k4) Mean: mean of test and retest; for BPND (k3/k4) Retest / BPND (k3/k4) Test / VT (2TCM): mean(SD); for BPND (k3/k4) Retest / BPND (k3/k4) Test: 6 subjects; for ICC: BPND test-retest
Method: Each subject was placed recumbent with the head in the PET system. A head fixation system with an individual plaster helmet was used. A cannula was inserted into the left radial artery and another into the right antecubital vein. A sterile phosphate buffer (pH = 7.4) containing radioligand was injected as a bolus over 2 s into the cubital vein. The cannula was then immediately flushed with a 10-mL saline solution. In each individual, the measurement was repeated after approximately 6 weeks.
The PET system used was ECAT Exact HR 47 (Siemens/CTI, Knoxville, TN, USA), with an in-plane and an axial resolution of 3.6 and 4.0 mm, respectively, full width at half maximum (FWHM). The radioactivity in the brain was measured continuously for 60 min using a pre-programmed sequence of […] (20 s × 9, 30 s × 6, 180 s × 5, 300 s × 5). […] The images were reconstructed with a Hanning filter (FWHM = 2 mm) in a matrix of 128 × 128 × 47 voxels, yielding a voxel size of 2.03 × 2.03 × 3.125 mm. Attenuation correction was done using transmission scan data obtained for each subject.
[^11C](R)-PK11195 binding to TSPO was quantified using kinetic compartment analyses with the metabolite-corrected arterial plasma curve as input function. Two compartment models (one- and two-tissue) were used to fit the model to the TACs. The fractional volume of blood present in the tissue volume and bolus time were estimated for each individual, each occasion, by fitting the whole brain TAC with a two-tissue compartment model.
The one-tissue compartment model (1TCM) describes one compartment which is a composite of free, non-specifically and specifically bound radioligands. The two rate constants, K1 and k2, describe the influx and efflux rates across the blood-brain barrier, respectively.
The two-tissue compartment model (2TCM) has been described in detail in the literature. The two-tissue compartments are defined as the radioactivity concentration of a nondisplaceable radioligand in the brain (CND) and the radioactivity concentration of a radioligand specifically bound to receptors (CB). In this model, four rate constants (K1, k2, k3 and k4) explain the time curves for radioligand in the brain. In short, the four rate constants were determined by curve fitting with a weighted non-linear least squares fitting technique with constraint-restricting parameters between 0 and 0.9. Each initial value for K1, k2, k3 and k4 was 0.5, 0.1, 0.5 and 0.5, respectively. The local minimum of the sum of the squared residuals was determined by iteration.
Regional [^11C](R)-PK11195 binding was expressed using the concept of the total distribution volume (VT), which is defined by the following equation, using kinetic constants obtained from 2TCM [16, 20, 21].
Specific [^11C](R)-PK11195 binding was expressed as binding potential relative to nondisplaceable binding (BPND) as follows:
The fractional volume of blood present in the tissue volume was determined for each individual, each occasion. It was obtained by fitting whole brain TAC with a 2TCM with six parameters (K1, k2, k3, k4, fractional blood volume (VB) and time shift between plasma input function and PET TAC (tbolus)) and parameters VB and tbolus subsequently applied for each brain region.
The reproducibility of two successive PET measurements was analysed by means of descriptive statistics (mean, range, SD, coefficient of variance (CV), difference in measurement (error in percent) and intra-class correlation coefficient (ICC)). The ICC was calculated from the between-subject and within-subject variations, using the expression: […]

[1] = putamen (R), BPND test-retest difference in measurements
[2] = thalamus (L), BPND test-retest difference in measurements
[3] = thalamus (R), BPND test-retest difference in measurements
[4] = thalamus, BPND test-retest difference in measurements
[5] = thalamus, VT (2TCM) test-retest
[6] = white matter, 1TCM, retest (2), individual subjects 1-6
[7] = white matter, 1TCM, retest (2), mean(SD/CV) of 6 subjects
[8] = white matter, 1TCM, test (1), individual subjects 1-6
[9] = white matter, 1TCM, test (1), mean(SD/CV) of 6 subjects
[10] = white matter, 2TCM, retest (2), individual subjects 1-6
[11] = white matter, 2TCM, retest (2), mean(SD/CV) of 6 subjects
[12] = white matter, 2TCM, test (1), individual subjects 1-6
[13] = white matter, 2TCM, test (1), mean(SD/CV) of 6 subjects
[14] = white matter, BPND test-retest difference in measurements
[15] = white matter, VT (2TCM) test-retest
[16] = whole brain, BPND test-retest difference in measurements
[17] = whole brain, VT (2TCM) test-retest

Sequence of TSPO (P30536 whole entry): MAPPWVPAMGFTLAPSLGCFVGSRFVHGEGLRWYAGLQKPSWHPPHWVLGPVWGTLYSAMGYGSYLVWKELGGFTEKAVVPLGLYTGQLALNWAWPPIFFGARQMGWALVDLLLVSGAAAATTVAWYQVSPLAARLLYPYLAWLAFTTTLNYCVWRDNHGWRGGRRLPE

## CC[C@@H](C)N([11CH3])C(=O)c1cc2ccccc2c(-c2ccccc2Cl)n1 [[^11C](R)-PK11195]
Putamen (R), 2TCM
  BPND (k3/k4) Mean: 1.41
  BPND (k3/k4) Retest: 1.56(0.73)
  BPND (k3/k4) Test: 1.27(0.48)
Putamen (R)
  ICC: -0.01
[1]
  Error % mean(SD): -32(72) %
  Error range (%): -145 to 34%
putamen, 2TCM
  BPND (k3/k4) Mean: 1.38
  BPND (k3/k4) Retest: 1.50(0.69)
  BPND (k3/k4) Test: 1.20(0.28)
putamen
  ICC: 0.09
putamen, BPND test-retest difference in measurements
  Error range (%): -138 to 21%
putamen, VT (2TCM) test-retest
  Error % mean(SD): 17(38) %
  Error range (%): -32 to 78%
putamen, retest
  VT (2TCM): 0.93(0.19)
putamen, test
  VT (2TCM): 0.83(0.21)
Thalamus (L), 2TCM
  BPND (k3/k4) Mean: 1.26
  BPND (k3/k4) Retest: 1.42(0.59)
  BPND (k3/k4) Test: 1.11(0.25)
Thalamus (L)
  ICC: 0.17
[2]
  Error % mean(SD): -32(64) %
  Error range (%): -136 to 39%
Thalamus (R), 2TCM
  BPND (k3/k4) Mean: 1.60
  BPND (k3/k4) Retest: 1.86(0.56)
  BPND (k3/k4) Test: 1.34(0.43)
Thalamus (R)
  ICC: 0.16
[3]
  Error % mean(SD): -46(50) %
  Error range (%): -136 to 17%
thalamus, 2TCM
  BPND (k3/k4) Mean: 1.36
  BPND (k3/k4) Retest: 1.53(0.45)
  BPND (k3/k4) Test: 1.19(0.28)
thalamus
  ICC: 0.57
[4]
  Error % mean(SD): -29% and -29(33) %
  Error range (%): -82 to 9%
[5]
  Error % mean(SD): -6(29) %
  Error range (%): -47 to 40%
thalamus, retest
  VT (2TCM): 0.80 (0.23)
thalamus, test
  VT (2TCM): 0.90(0.27)
[6]
  K1: 0.075 mL/cc/min and 0.027 mL/cc/min and 0.032 mL/cc/min and 0.033 mL/cc/min and 0.042 mL/cc/min and 0.046 mL/cc/min
  k2: 0.085 min⁻¹ and 0.066 min⁻¹ and 0.078 min⁻¹ and 0.064 min⁻¹ and 0.071 min⁻¹ and 0.089 min⁻¹
[7]
  K1: 0.043(0.017/39) mL/cc/min
  k2: 0.076(0.010/13) min^-1
[8]
  K1: 0.049 mL/cc/min and 0.027 mL/cc/min and 0.048 mL/cc/min and 0.030 mL/cc/min and 0.055 mL/cc/min and 0.044 mL/cc/min
  k2: 0.066 min⁻¹ and 0.081 min⁻¹ and 0.072 min⁻¹ and 0.086 min⁻¹ and 0.071 min⁻¹
[9]
  K1: 0.042(0.011/26) mL/cc/min
  k2: 0.074(0.008/11) min^-1
White matter, 2TCM
  BPND (k3/k4) Mean: 1.84
  BPND (k3/k4) Retest: 1.78(0.42)
  BPND (k3/k4) Test: 1.90(0.42)
[10]
  K1: 0.060 mL/cc/min and 0.097 mL/cc/min and 0.035 mL/cc/min and 0.045 mL/cc/min and 0.039 mL/cc/min and 0.051 mL/cc/min
  k2: 0.206 min⁻¹ and 0.209 min⁻¹ and 0.164 min⁻¹ and 0.223 min⁻¹ and 0.126 min⁻¹ and 0.144 min⁻¹
  k3: 0.042 min⁻¹ and 0.061 min⁻¹ and 0.041 min⁻¹ and 0.046 min⁻¹ and 0.028 min⁻¹ and 0.033 min⁻¹
  k4: 0.025 min⁻¹ and 0.045 min⁻¹ and 0.020 min⁻¹ and 0.019 min⁻¹ and 0.018 min⁻¹ and 0.022 min⁻¹
[11]
  K1: 0.055(0.023/42) mL/cc/min
  k2: 0.179(0.040/22) min^-1
  k3: 0.042(0.011/26) min^-1
  k4: 0.025(0.010/40) min^-1
[12]
  K1: 0.061 mL/cc/min and 0.032 mL/cc/min and 0.035 mL/cc/min and 0.067 mL/cc/min and 0.056 mL/cc/min
  k2: 0.154 min⁻¹ and 0.124 min⁻¹ and 0.184 min⁻¹ and 0.138 min⁻¹ and 0.165 min⁻¹ and 0.176 min⁻¹
  k3: 0.043 min⁻¹ and 0.024 min⁻¹ and 0.034 min⁻¹ and 0.037 min⁻¹
  k4: 0.026 min⁻¹ and 0.019 min⁻¹ and 0.014 min⁻¹ and 0.012 min⁻¹ and 0.030 min⁻¹
[13]
  K1: 0.052(0.015/29) mL/cc/min
  k2: 0.157(0.02/13) min^-1
  k3: 0.034(0.009/26) min^-1
  k4: 0.020(0.007/35) min^-1
White matter
  ICC: 0.73
[14]
  Error % mean(SD): -4% and -8% and -8(18) %
  Error range (%): -25 to 21%
[15]
  Error % mean(SD): -9(25) %
  Error range (%): -42 to 28%
White matter, retest
  VT (2TCM): 0.88 (0.19)
White matter, test
  VT (2TCM): 0.99(0.17)
Whole brain, 2TCM
  BPND (k3/k4) Mean: 1.67
  BPND (k3/k4) Retest: 1.68(0.35)
  BPND (k3/k4) Test: 1.65(0.33)
Whole brain
  ICC: 0.57
[16]
  Error % mean(SD): 4% and -4(19) %
  Error range (%): -25 to 22%
[17]
  Error % mean(SD): -7(20) %
  Error range (%): -38 to 21%
Whole brain, retest
  VT (2TCM): 0.75 (0.16)
Whole brain, test
  VT (2TCM): 0.82(0.18)
